In patent US20090311217A1, “3-SUBSTITUTED-1H-INDOLE COMPOUNDS, THEIR USE AS MTOR KINASE AND PI3 KINASE INHIBITORS, AND THEIR SYNTHESES” (priority 2008, published 2009):
Where two headings read alike, the source gives them in different places.

How the values were obtained:
Assay type in all cases: biochemical
[1] = target: PI3K-alpha (Homo sapiens, UniProt P42336); experiment: PI3K-alpha fluorescence polarization assay
[2] = target: T1, human TOR (Homo sapiens, UniProt P42345); experiment: mTOR enzyme assay (DELFIA, His6-S6K substrate); conditions: read-out: mTOR Kinase Avg. IC50
T1 construct: FLAG

[3] = target: PI3K-gamma (Homo sapiens, UniProt P48736); experiment: PI3K-gamma fluorescence polarization assay
Method in brief: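 Reactions in 5 mM HEPES pH 7, 2.5 mM MgCl2, 25 μM ATP with 2.5 μM diC8-PI(4,5)P2 and 5 ng enzyme, 1 h at 25° C, then EDTA quench. Product detected by FP using GST-GRP1 PH domain (100 nM) and BODIPY-TMR-IP4 tracer (5 nM); final DMSO 0.8%.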

Chain of PI3K-gamma (P48736 whole entry, species assumed, the tested form may be a part): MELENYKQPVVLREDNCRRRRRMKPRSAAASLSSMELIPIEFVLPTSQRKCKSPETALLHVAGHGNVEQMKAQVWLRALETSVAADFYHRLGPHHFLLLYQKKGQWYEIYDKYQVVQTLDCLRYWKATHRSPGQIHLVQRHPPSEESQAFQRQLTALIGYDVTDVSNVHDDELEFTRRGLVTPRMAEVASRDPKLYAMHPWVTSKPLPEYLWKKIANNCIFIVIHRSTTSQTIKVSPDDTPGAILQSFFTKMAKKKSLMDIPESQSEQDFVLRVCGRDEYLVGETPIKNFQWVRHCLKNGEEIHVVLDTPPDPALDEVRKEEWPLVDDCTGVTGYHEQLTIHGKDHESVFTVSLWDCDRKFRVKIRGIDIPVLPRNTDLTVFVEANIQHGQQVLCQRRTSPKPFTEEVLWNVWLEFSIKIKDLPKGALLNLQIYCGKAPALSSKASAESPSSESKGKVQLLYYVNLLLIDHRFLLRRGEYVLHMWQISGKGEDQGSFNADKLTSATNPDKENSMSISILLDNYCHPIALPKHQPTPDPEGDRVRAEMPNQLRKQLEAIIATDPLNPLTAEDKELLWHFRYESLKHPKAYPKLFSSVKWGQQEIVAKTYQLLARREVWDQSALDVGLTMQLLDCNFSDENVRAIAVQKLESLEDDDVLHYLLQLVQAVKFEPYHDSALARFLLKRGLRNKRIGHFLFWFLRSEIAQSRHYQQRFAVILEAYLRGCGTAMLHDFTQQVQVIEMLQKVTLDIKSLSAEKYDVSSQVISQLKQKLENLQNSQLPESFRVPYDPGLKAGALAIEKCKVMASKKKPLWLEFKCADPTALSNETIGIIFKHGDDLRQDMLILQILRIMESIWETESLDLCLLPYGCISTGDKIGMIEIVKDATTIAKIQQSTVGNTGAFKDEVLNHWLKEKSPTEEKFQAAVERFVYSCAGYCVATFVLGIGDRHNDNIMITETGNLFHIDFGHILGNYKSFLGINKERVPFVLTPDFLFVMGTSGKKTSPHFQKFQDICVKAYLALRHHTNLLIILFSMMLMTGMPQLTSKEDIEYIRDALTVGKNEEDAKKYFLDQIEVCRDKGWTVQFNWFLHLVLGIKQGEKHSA
Chain of PI3K-alpha (P42336 whole entry, species assumed): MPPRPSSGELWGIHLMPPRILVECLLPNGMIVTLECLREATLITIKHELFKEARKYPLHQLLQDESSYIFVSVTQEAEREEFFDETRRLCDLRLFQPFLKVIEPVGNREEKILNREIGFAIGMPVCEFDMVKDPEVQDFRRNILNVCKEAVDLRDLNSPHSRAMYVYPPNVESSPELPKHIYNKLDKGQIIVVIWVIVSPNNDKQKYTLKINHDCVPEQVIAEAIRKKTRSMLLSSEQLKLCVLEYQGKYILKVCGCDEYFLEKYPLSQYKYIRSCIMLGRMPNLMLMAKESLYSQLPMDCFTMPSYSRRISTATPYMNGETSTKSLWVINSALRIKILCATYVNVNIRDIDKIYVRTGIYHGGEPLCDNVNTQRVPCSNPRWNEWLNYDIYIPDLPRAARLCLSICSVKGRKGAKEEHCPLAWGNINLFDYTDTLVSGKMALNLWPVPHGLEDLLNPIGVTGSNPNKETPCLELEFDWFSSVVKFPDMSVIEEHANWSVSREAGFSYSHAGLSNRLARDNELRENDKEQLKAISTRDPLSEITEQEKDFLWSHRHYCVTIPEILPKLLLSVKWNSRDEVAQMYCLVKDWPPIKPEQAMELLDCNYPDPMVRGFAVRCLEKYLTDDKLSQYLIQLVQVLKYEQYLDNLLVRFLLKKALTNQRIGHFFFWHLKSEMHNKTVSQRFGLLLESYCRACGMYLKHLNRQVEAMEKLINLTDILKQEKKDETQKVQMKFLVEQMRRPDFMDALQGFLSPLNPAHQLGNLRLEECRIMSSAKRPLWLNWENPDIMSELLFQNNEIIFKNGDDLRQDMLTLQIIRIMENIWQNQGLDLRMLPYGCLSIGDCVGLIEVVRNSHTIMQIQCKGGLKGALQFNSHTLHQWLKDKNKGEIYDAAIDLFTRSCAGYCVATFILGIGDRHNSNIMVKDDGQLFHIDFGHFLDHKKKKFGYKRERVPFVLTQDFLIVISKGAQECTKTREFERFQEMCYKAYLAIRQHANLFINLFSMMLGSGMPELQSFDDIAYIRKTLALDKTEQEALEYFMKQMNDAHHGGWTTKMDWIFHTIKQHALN
Chain of PI3K-alpha (P27986 whole entry partner, species assumed): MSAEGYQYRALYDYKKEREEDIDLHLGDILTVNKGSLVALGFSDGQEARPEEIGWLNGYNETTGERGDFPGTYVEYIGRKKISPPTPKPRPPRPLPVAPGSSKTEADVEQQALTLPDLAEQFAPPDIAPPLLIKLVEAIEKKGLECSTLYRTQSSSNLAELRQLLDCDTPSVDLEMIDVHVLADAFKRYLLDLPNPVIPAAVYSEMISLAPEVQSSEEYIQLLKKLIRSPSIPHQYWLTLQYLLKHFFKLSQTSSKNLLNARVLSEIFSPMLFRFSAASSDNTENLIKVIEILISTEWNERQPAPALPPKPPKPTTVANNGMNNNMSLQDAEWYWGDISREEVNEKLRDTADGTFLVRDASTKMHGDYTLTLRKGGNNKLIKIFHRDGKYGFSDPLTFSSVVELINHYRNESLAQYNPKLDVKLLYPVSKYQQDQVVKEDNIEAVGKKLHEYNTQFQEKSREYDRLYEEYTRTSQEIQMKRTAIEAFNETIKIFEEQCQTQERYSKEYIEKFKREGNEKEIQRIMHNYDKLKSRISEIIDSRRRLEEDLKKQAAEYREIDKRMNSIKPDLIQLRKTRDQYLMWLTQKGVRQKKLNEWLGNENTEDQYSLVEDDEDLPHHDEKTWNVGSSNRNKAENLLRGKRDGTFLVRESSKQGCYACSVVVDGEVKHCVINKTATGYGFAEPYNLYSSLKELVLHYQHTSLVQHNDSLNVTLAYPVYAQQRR

Question: What does the source list for CNC(=O)Nc1ccc2c(c1)C(=O)/C(=C/c1c(-c3nc(C(C)C)no3)n(CCN3CCN(C)CC3)c3ccc(OC)cc13)O2 [Compound 621, 1-[(2Z)-2-({5-methoxy-2-[3-(1-methylethyl)-1,2,4-oxadiazol-5-yl]-1-[2-(4-methylpiperazin-1-yl)ethyl]-1H-indol-3-yl}methylidene)-3-oxo-2,3-dihydro-1-benzofuran-5-yl]-3-methylurea]?
Answer: IC50 ([1]; read-out: PI3Kα Avg. IC50): 3.5 nM; IC50 [2]: 225 nM; IC50 ([3]; read-out: PI3Kγ Avg. IC50): 355 nM

Question: Which results are given for COc1ccc2c(c1)c(/C=C1\Oc3cc(O)ccc3C1=O)c(-c1c(C)noc1C)n2CCN1CCN(C)CC1 [Example 469, (2Z)-2-({2-(3,5-Dimethylisoxazol-4-yl)-5-methoxy-1-[2-(4-methylpiperazin-1-yl)ethyl]-1H-indol-3-yl}methylene)-6-hydroxy-1-benzofuran-3(2H)-one]?
Answer: IC50 ([1]; read-out: PI3Kα Avg. IC50): 23.5 nM; IC50 [2]: 165 nM; IC50 ([3]; PI3Kγ Avg. IC50): 942 nM

Question: With CCn1c(C)c(/C=C2\Oc3ccc(NC(=O)Nc4ccc(NCCN(C)C)cc4)cc3C2=O)c2cc(OC)ccc21 [Compound 678, 1-(4-{[2-(dimethylamino)ethyl]amino}phenyl)-3-{(2Z)-2-[(1-ethyl-5-methoxy-2-methyl-1H-indol-3-yl)methylidene]-3-oxo-2,3-dihydro-1-benzofuran-5-yl}urea] as the compound, how does the IC50 ([1]; read-out: PI3Kα Avg. IC50) read?
Answer: Its IC50 is 3 nM.

Question: And the IC50 [2]?
Answer: Its IC50 is 130 nM.

Question: And the IC50 ([3]; PI3Kγ Avg. IC50)?
Answer: The IC50 was 14.5 nM.

Question: CCn1c(C)c(/C=C2\Oc3ccc(NC(=O)Nc4ccc(C(=O)N(C)CCCN(C)C)cc4)cc3C2=O)c2cc(OC)ccc21 [Compound 657, N-[3-(dimethylamino)propyl]-4-[({(2Z)-2-[(1-ethyl-5-methoxy-2-methyl-1H-indol-3-yl)methylene]-3-oxo-2,3-dihydro-1-benzofuran-5-yl}carbamoyl)amino]-N-methylbenzamide] was tested. Which IC50 ([1]; read-out: PI3Kα Avg. IC50) did it give?
Answer: The IC50 was 0.4 nM.

Question: And the IC50 [2]?
Answer: The IC50 was 84 nM.

Question: What about the IC50 ([3]; PI3Kγ Avg. IC50) of the same compound?
Answer: Its IC50 is 3.5 nM.

Question: How did the IC50 ([1]; read-out: PI3Kα Avg. IC50) turn out when CNCCNC(=O)Nc1ccc2c(c1)C(=O)/C(=C/c1c(-c3c(C)nn(C)c3C)[nH]c3c(F)cc(OC)cc13)O2 [Compound 728, 1-[(2Z)-2-{[7-fluoro-5-methoxy-2-(1,3,5-trimethyl-1H-pyrazol-4-yl)-1H-indol-3-yl]methylidene}-3-oxo-2,3-dihydro-1-benzofuran-5-yl]-3-[2-(methylamino)ethyl]urea] was run?
Answer: The IC50 was 0.95 nM.

Question: What about the IC50 [2] of the same compound?
Answer: Its IC50 is 7 nM.

Question: What about the IC50 ([3]; PI3Kγ Avg. IC50) of the same compound?
Answer: The IC50 was 3.55 nM.

Question: O=C1C(=Cc2c(-c3cccc(O)c3)[nH]c3ccccc23)Oc2cc(O)cc(O)c21 [Example 205, 4,6-dihydroxy-2-{[2-(3-hydroxyphenyl)-1H-indol-3-yl]methylene}-1-benzofuran-3(2H)-one] was tested. Which IC50 ([1]; read-out: PI3Kα Avg. IC50) did it give?
Answer: The IC50 was 479 nM.

Question: And the IC50 [2]?
Answer: The IC50 was 110 nM.

Question: What about the IC50 ([3]; PI3Kγ Avg. IC50) of the same compound?
Answer: The IC50 was 2370 nM.

Question: What does the source list for O=C1C(=Cc2c(-c3cccnc3)[nH]c3ccccc23)Oc2cc(O)cc(O)c21 [Example 202, 4,6-dihydroxy-2-[(2-pyridin-3-yl-1H-indol-3-yl)methylene]-1-benzofuran-3(2H)-one]?
Answer: IC50 ([1]; read-out: PI3Kα Avg. IC50): 1050 nM; IC50 [2]: 95 nM; IC50 ([3]; PI3Kγ Avg. IC50): 7000 nM

Question: What does the source list for COc1ccc2[nH]c(-c3c(C)nn(C)c3C)c(/C=C3\Oc4ccc(NC(=O)Nc5ccc(C(=O)N6CCC(N(C)C)CC6)cc5)cc4C3=O)c2c1 [Compound 702, 1-(4-{[4-(dimethylamino)piperidin-1-yl]carbonyl}phenyl)-3-[(2Z)-2-{[5-methoxy-2-(1,3,5-trimethyl-1H-pyrazol-4-yl)-1H-indol-3-yl]methylidene}-3-oxo-2,3-dihydro-1-benzofuran-5-yl]urea]?
Answer: IC50 ([1]; read-out: PI3Kα Avg. IC50): 0.3 nM; IC50 [2]: 1 nM; IC50 ([3]; PI3Kγ Avg. IC50): 3 nM

Question: For O=C1/C(=C/c2c(-c3ccc4ccccc4c3)[nH]c3ccccc23)Oc2cc(O)cc(O)c21 [Example 45, (2Z)-4,6-dihydroxy-2-{[2-(2-naphthyl)-1H-indol-3-yl]methylene}-1-benzofuran-3(2H)-one], which IC50 ([1]; PI3Kα Avg. IC50) is on record?
Answer: Its IC50 is 799 nM.

Question: What about the IC50 [2] of the same compound?
Answer: The IC50 was 280 nM.

Question: And the IC50 ([3]; PI3Kγ Avg. IC50)?
Answer: The IC50 was 1820 nM.

Question: What does the source list for O=C1/C(=C/c2c[nH]c3cccc(-c4ccc(F)cc4)c23)Oc2cc(O)cc(O)c21 [Example 363, (2Z)-2-{[4-(4-fluorophenyl)-1H-indol-3-yl]methylene}-4,6-dihydroxy-1-benzofuran-3(2H)-one]?
Answer: IC50 ([1]; read-out: PI3Kα Avg. IC50): 1650 nM; IC50 [2]: 3500 nM; IC50 ([3]; PI3Kγ Avg. IC50): 1080 nM
